This passage reports IC50 results from US20240059703A1 (AMGEN INC., priority 2021, published 2024).

In general, IC50 refers to the concentration at which inhibition is half-maximal.

The structures appear in SMILES notation.

Chain of KRAS G12C (P01116 other isoform, or with tags, fused parts or gaps G12C/C118A): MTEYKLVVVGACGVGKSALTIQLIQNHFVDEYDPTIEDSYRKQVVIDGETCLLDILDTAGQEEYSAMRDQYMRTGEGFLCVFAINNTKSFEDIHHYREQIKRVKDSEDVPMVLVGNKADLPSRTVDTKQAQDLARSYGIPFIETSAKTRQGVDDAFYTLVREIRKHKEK

The first assay has as its target KRAS G12C (Homo sapiens (Human), UniProt P01116, C118A/G12C). Put plainly: 2 h coupled exchange assay. The following applies: Avg 2 h Coupled exchange IC50, 2 h compound pre-incubation. In kind it is biochemical. How it is done: The term “2 h coupled exchange assay” or “20 h coupled exchange assay” as used herein refers to the assay described in the Section entitled “BIOLOGICAL EVALUATION.”
In turn, `C=CC(=O)N1CC2(CCN(c3nc4c(c(-c5c(C)ccc6cnn(C)c56)c3F)C[C@H]3C[C@@H]4C3(C)C)C2)C1` (single isomer, unassigned) [Example 14-63] registered an IC50 of 364 nM. Still for that read-out and setting: as for `C=CC(=O)N1CC2(CCN(c3nc4c(c(-c5cccc6cc(O)ccc56)c3C)COC(C)(C)C4)C2)C1` (single isomer, unassigned) [Example 14-45, (M)-1-(6-(4-(6-hydroxy-1-naphthalenyl)-3,7,7-trimethyl-7,8-dihydro-5H-pyrano[4,3-b]pyridin-2-yl)-2,6-diazaspiro[3.4]octan-2-yl)-2-propen-1-one], the figure is 7480 nM; as for `C=CC(=O)N1CC2(CCN(c3nc4c(c(-c5c(C)ccc6cnn(C)c56)c3C)COC(C)(C)C4)C2)C1` (single isomer, unassigned) [Example 14-100, (M)-1-(6-(4-(1,6-dimethyl-1H-indazol-7-yl)-3,7,7-trimethyl-7,8-dihydro-5H-pyrano[4,3-b]pyridin-2-yl)-2,6-diazaspiro[3.4]octan-2-yl)-2-propen-1-one], 602 nM; as for `C=CC(=O)N1CC2(CCN(c3nc4c(c(-c5cccc6cc(O)ccc56)c3F)COC(C)(C)C4)C2)C1` (single isomer, unassigned) [Example 14-66, (P)-1-(6-(3-fluoro-4-(6-hydroxy-1-naphthalenyl)-7,7-dimethyl-7,8-dihydro-5H-pyrano[4,3-b]pyridin-2-yl)-2,6-diazaspiro[3.4]octan-2-yl)-2-propen-1-one], 33500 nM. On the same count and under the same terms, as for `C=CC(=O)N1CC2(CCN(c3nc4c(c(-c5ncccc5F)c3C#N)CC[C@@H](c3scnc3C)C4)C2)C1` [Example 23-59, (7R)-4-(3-fluoro-2-pyridinyl)-7-(4-methyl-1,3-thiazol-5-yl)-2-(2-(2-propenoyl)-2,6-diazaspiro[3.4]octan-6-yl)-5,6,7,8-tetrahydro-3-quinolinecarbonitrile], the figure is 164 nM; as for `C=CC(=O)N1CC2(CCN(c3nc4c(c(-c5ccc(F)c6sc(N)nc56)c3C)COC(C)(C)C4)C2)C1` [Example 14-27, 1-(6-(4-(2-amino-7-fluoro-1,3-benzothiazol-4-yl)-3,7,7-trimethyl-7,8-dihydro-5H-pyrano[4,3-b]pyridin-2-yl)-2,6-diazaspiro[3.4]octan-2-yl)-2-propen-1-one], 164 nM.

Still in this assay, the particulars now being: Avg 2 h Coupled exchange IC50, 2 h compound pre-incubation, SOS-mediated nucleotide exchange.
For `C=CC(=O)N1CC2(CCN(c3nc4c(c(-c5c(C)ccc6cnn(C)c56)c3C#N)COC(C)(C)C4)C2(C)C)C1` [Example 13-48, 4-(1,6-dimethyl-1H-indazol-7-yl)-2-(5,5-dimethyl-2-(2-propenoyl)-2,6-diazaspiro[3.4]octan-6-yl)-7,7-dimethyl-7,8-dihydro-5H-pyrano[4,3-b]pyridine-3-carbonitrile], the IC50 was found to be 664 nM. Same read-out and setting: to `C=CC(=O)N1CC2(CCN(c3nc4c(c(-c5c(C)ccc6[nH]ncc56)c3Cl)COC(C)(C)C4)C2)C1` (single isomer, unassigned) [Example 2-85, (M)-1-(6-(3-chloro-7,7-dimethyl-4-(5-methyl-1H-indazol-4-yl)-7,8-dihydro-5H-pyrano[4,3-b]pyridin-2-yl)-2,6-diazaspiro[3.4]octan-2-yl)-2-propen-1-one] belongs 12600 nM. For `C=CC(=O)N1CC2(CCN(c3nc4c(c(-c5c(C)ccc6cnn(C)c56)c3C#N)CO[C@H](C)C4)C2)C1` [Example 13-141, (7)-2-(2-acryloyl-2,6-diazaspiro[3.4]octan-6-yl)-4-(1,6-dimethyl-1H-indazol-7-yl)-7-methyl-7,8-dihydro-5H-pyrano[4,3-b]pyridine-3-carbonitrile], inhibition was half-maximal at 842 nM (IC50). Same read-out and setting: to `C=CC(=O)N1CC2(CCN(c3nc4c(c(-c5c(O)cccc5Cl)c3C#N)C[C@H]3C[C@@H]4C3)C2)C1` [Example 13-64, (1S,9S)-6-(2-chloro-6-hydroxyphenyl)-4-(2-(2-propenoyl)-2,6-diazaspiro[3.4]octan-6-yl)-3-azatricyclo[7.1.1.0^2,7]undeca-2,4,6-triene-5-carbonitrile] belongs 1080 nM. The same measure, in the same setting: to `C=CC(=O)N1CC2(CCN(c3nc4c(c(-c5cc(O)c(F)c6ccccc56)c3C#N)CCC3CC43)C2)C1` [Example 13-72, (6aR,7aR)-4-(4-fluoro-3-hydroxy-1-naphthalenyl)-2-(2-(2-propenoyl)-2,6-diazaspiro[3.4]octan-6-yl)-6,6a,7,7a-tetrahydro-5H-cyclopropa[h]quinoline-3-carbonitrile|(6aS,7aS)-4-(4-fluoro-3-hydroxy-1-naphthalenyl)-2-(2-(2-propenoyl)-2,6-diazaspiro[3.4]octan-6-yl)-6,6a,7,7a-tetrahydro-5H-cyclopropa[h]quinoline-3-carbonitrile] belongs 564 nM; to `C=CC(=O)N1CC2(CCN(c3nc4c(c(-c5ccnn5C)c3C#N)CC[C@@H](c3ccnn3C)C4)C2)C1` (single isomer, unassigned) [Example 13-29], 217 nM; to `C=CC(=O)N1CC2(CCN(c3nc4c(c(-c5c(C)ccc6cnn(C)c56)c3C#N)CCC4(C)C)C2)C1` (single isomer, unassigned) [Example 13-102, (P)-2-(2-acryloyl-2,6-diazaspiro[3.4]octan-6-yl)-4-(1,6-dimethyl-1H-indazol-7-yl)-7,7-dimethyl-6,7-dihydro-5H-cyclopenta[b]pyridine-3-carbonitrile], 140000 nM. Still for that read-out and setting: to `C=CC(=O)N1CC2(CCN(c3nc4ccccc4c(-c4c(C)ccc5[nH]nc(Cl)c45)c3C#N)C2)C1` [Example 14-3, 4-(3-chloro-5-methyl-1H-indazol-4-yl)-2-(2-(2-propenoyl)-2,6-diazaspiro[3.4]octan-6-yl)-3-quinolinecarbonitrile] belongs 588 nM; to `C=CC(=O)N1CC2(CCN(c3nc4c(c(-c5cc(O)cc(C(F)(F)F)c5F)c3C)CCC(C)(C)C4)C2)C1` [Example 2-22, 1-(6-(4-(2-fluoro-5-hydroxy-3-(trifluoromethyl)phenyl)-3,7,7-trimethyl-5,6,7,8-tetrahydro-2-quinolinyl)-2,6-diazaspiro[3.4]octan-2-yl)-2-propen-1-one], 846 nM. In turn, `Cc1ccc2[nH]ncc2c1-c1c(C#N)c(N2CCC3(CN(C(=O)/C=C/C(F)(F)F)C3)C2)nc2c1CCC(C)(C)C2` [Example 13-7, 7,7-dimethyl-4-(5-methyl-1H-indazol-4-yl)-2-(2-((2E)-4,4,4-trifluoro-2-butenoyl)-2,6-diazaspiro[3.4]octan-6-yl)-5,6,7,8-tetrahydro-3-quinolinecarbonitrile] showed a half-inhibitory concentration (IC50) of 229 nM. Consider `C=CC(=O)N1CC2(CCN(c3nc4c(c(-c5cc(Cl)cc6cc[nH]c56)c3C#N)COC(C)(C)C4)C2)C1` [Example 12-7, 4-(5-chloro-1H-indol-7-yl)-7,7-dimethyl-2-(2-(2-propenoyl)-2,6-diazaspiro[3.4]octan-6-yl)-7,8-dihydro-5H-pyrano[4,3-b]pyridine-3-carbonitrile], for which the IC50 is 435 nM. Compound `C=CC(=O)N1CC2(CCN(c3nc4ccccc4c(-c4c(Cl)ccc5[nH]ncc45)c3C)C2)C1` [Example 2-29, 1-(6-(4-(5-chloro-1H-indazol-4-yl)-3-methyl-2-quinolinyl)-2,6-diazaspiro[3.4]octan-2-yl)-2-propen-1-one] returned an IC50 of 903 nM. Same read-out and setting: to `C=CC(=O)N1CC2(CCN(c3nc4c(c(-c5c(O)cccc5Cl)c3C#N)C[C@H]3C[C@@H]4C3)C2)C1` (single isomer, unassigned) [Example 13-66] belongs 76000 nM; to `C=CC(=O)N1CC2(CCN(c3nc4c(c(-c5ccc(F)c6cc[nH]c56)c3C#N)COC(C)(C)C4)C2)C1` [Example 12-3, 4-(4-fluoro-1H-indol-7-yl)-7,7-dimethyl-2-(2-(2-propenoyl)-2,6-diazaspiro[3.4]octan-6-yl)-7,8-dihydro-5H-pyrano[4,3-b]pyridine-3-carbonitrile], 623 nM; to `C=CC(=O)N1CC2(CCN(c3nc(-c4c(C)ccc5[nH]ncc45)c4ccc(C)cc4n3)C2)C1` [Example 1-40, 1-(6-(7-methyl-4-(5-methyl-1H-indazol-4-yl)-2-quinazolinyl)-2,6-diazaspiro[3.4]octan-2-yl)-2-propen-1-one], 9010 nM. For the compound `C=CC(=O)N1CC2(CCN(c3nc4c(c(-c5c(C)ccc6[nH]ncc56)c3C#N)[C@@H]3CC[C@H]4C3)C2)C1` (single isomer, unassigned) [Example 14-6], 1420 nM corresponded to half-maximal inhibition (IC50). This IC50 is about 6.3-fold lower than that of the compound before. Same read-out and setting: to `C=CC(=O)N1CC2(CCN(c3nc4c(c(-c5cc(Cl)cc6ccn(C)c56)c3C#N)COC(C)(C)C4)C2)C1` (single isomer, unassigned) [Example 12-10, (M)-4-(5-chloro-1-methyl-1H-indol-7-yl)-7,7-dimethyl-2-(2-(2-propenoyl)-2,6-diazaspiro[3.4]octan-6-yl)-7,8-dihydro-5H-pyrano[4,3-b]pyridine-3-carbonitrile] belongs 7420 nM; to `C=CC(=O)N1CC2(CCN(c3nc4c(c(-c5cc(O)ccc5C)c3C#N)[C@H]3CC[C@@H]4C3)C2)C1` (single isomer, unassigned) [Example 14-14], 108 nM; to `C=CC(=O)N1CC2(CCN(c3nc4cc(OC)cnc4c(-c4c(C)ccc5[nH]ncc45)c3C)C2)C1` [Example 2-51, 1-(6-(7-methoxy-3-methyl-4-(5-methyl-1H-indazol-4-yl)-1,5-naphthyridin-2-yl)-2,6-diazaspiro[3.4]octan-2-yl)-2-propen-1-one], 267 nM. Compound `C=CC(=O)N1CC2(C1)CN(c1nc3c(c(-c4c(C)ccc5cnn(C)c45)c1C#N)COC(C)(C)C3)CC2(F)F` [Example 13-47, 2-(8,8-difluoro-2-(2-propenoyl)-2,6-diazaspiro[3.4]octan-6-yl)-4-(1,6-dimethyl-1H-indazol-7-yl)-7,7-dimethyl-7,8-dihydro-5H-pyrano[4,3-b]pyridine-3-carbonitrile] registered an IC50 of 298 nM. Same read-out and setting: to `C=CC(=O)N1CC2(CCN(c3nc4c(c(-c5c(C)ccc6cnn(C)c56)c3C#N)[C@@H]3CC[C@H]4C3)C2)C1` (single isomer, unassigned) [Example 14-16] belongs 250000 nM.
